# Assay results from patent US20070155782A1, “Nk-1 receptor antagonists anesthesia recovery” (priority 2004, published 2007).
# Where “and” joins values, the source holds several entries; their conditions need not be identical. Equal entries are not always repeated.
# Legend:
# geriatric beagles = assay: Experiment B: recovery from general anesthesia in beagle dogs, 0.5 mg/kg compound of Formula Ia; assay type: in vivo
# Method: (§1) The patients utilized in the study were maintained in standard facilities with appropriate heating and ventilation. All dogs were placed under general anesthesia. The duration of anesthesia, time to extubation and time to sternal recumbency were recorded. Also noted were behaviors indicative of dysphoria such as vocalization and purposeless movement. A visual analog scale (“VAS”) was used to score the “quality” of the entire recovery period.
# (§2) As used herein, the term “duration of anesthesia” is the time in minutes elapsed between intubation and cessation of anesthetic gases.
# (§3) As used herein, the term “time to extubation” is the time in minutes elapsed between cessation of anesthetic gases and the need for removal of the endotracheal tube due to spontaneous swallowing.
# (§4) As used herein, the term “time to Sternal Recumbency” is the time in minutes elapsed between cessation of anesthetic gases and the time the dog could physically place and maintain itself in sternal recumbency.
# (§5) Evaluation of Recovery Period. A visual analog scale (“VAS”) was used to score the “quality” of the recovery period (0=smooth recovery, 10=rough recovery). Factors considered included, but were not limited to, vocalization, purposeless movement as well as the subjective degree of dysphoria experienced by the dog. The study director, who was blinded to treatment assignments, assigned recovery scores.
# (§6) Statistical Analysis. Data from two trials conducted according to the above procedure were combined for analysis purposes. The data in the following Tables and Figures are mean±standard deviation. Duration of anesthesia, time to extubation and time to sternal recumbency data were analyzed using a paired t-test for means in Excel. Recovery VAS data were analyzed using SAS Statistical Software.
# Fifteen experimental geriatric beagles, weighing 9-16 kilograms and undergoing anesthesia for dental prophylaxis, were used in this study. All dogs were fasted overnight prior to anesthesia. Experimental dogs were subcutaneously administered 0.5 mg/kg compound of Formula Ia at the time of pre-anesthetic medication. Control dogs received no treatment in addition to routine pre-anesthesia medications. The duration of anesthesia, time to extubation and time to sternal recumbency were recorded.
# (§7) Preparation of 0.5 mg/kg compound of Formula Ia dose: Formulations were prepared by dissolving the compound of Formula Ia (10 mg/mL) and SBE-CD (10%) in distilled water to form a solution. The solution was sonicated to facilitate complete dissolution and filtered through a 0.22 μm Millipore syringe top filter prior to injection.
# Administration of Dose: Solutions of compound of Formula Ia (0.5 mg/kg) were administered by subcutaneous injection.
# Anesthetic Protocol: General anesthesia was induced and maintained using the following protocol:
# (1) Preanesthetic administration: the Experimental patients were treated with subcutaneous administration of a dose of compound of Formula Ia, as prepared above. Both experimental and control patients were administered glycopyrrolate (0.01 mg/kg SC), butorphanol (0.1 mg/kg SC) and penicillin (30,000 units/kg SC)
# (2) During the induction period, the patients were administered intravenous methohexital (8 mg/kg IV).
# (3) The patients were then maintained with inhalant isoflurane at concentrations ranging from 0.5 to 3%.
# The patients were monitored continuously during the anesthetic and recovery periods.
# mature mongrel dogs = assay: Experiment A: anesthetic recovery in dogs, 1.0 mg/kg compound of Formula Ia vs saline control; assay type: in vivo
# Method: as §1, §2, §3, §4, §5, §6
# Experimental mature mongrel dogs, both male and female, weighing about 16-26 kilograms, were subcutaneously administered 1.0 mg/kg compound of Formula Ia one hour prior to preanesthetic administration. Control dogs were subcutaneously administered an equivalent volume of saline solution one hour prior to preanesthetic administration. The duration of anesthesia, time to extubation and time to sternal recumbency were recorded. The patients were monitored continuously during the anesthetic and recovery periods.
# as §7, with “1.0” for “0.5”
# Administration of Dose: Solutions of compound of Formula Ia (1.0 mg/kg) or saline placebo (0.1 mL/kg) were administered by subcutaneous injection (“SC”).
# Anesthetic Protocol: General anesthesia was induced using the following protocol: (1) One hour prior to preanesthetic administration, the patients were treated with subcutaneous administration of either a dose of compound of Formula Ia, as prepared above, or the saline control (0.1 mL/kg).
# (2) Thirty (30) minutes prior to induction (preanesthetic), the patients were administered glycopyrrolate (0.01 mg/kg SC) and butorphanol (0.1 mg/kg SC).
# (3) During the induction period, the patients were administered intravenous methohexital (8 mg/kg IV).
# (4) The patients were then maintained with inhaled isoflurane at concentrations ranging from 0.5 to 3%.
# [1] = 0.5 mg/kg SC at time of pre-anesthetic medication, beagle dogs
# [2] = 1 mg/kg SC one hour prior to preanesthetic, individual dogs
# [3] = 1 mg/kg SC, Mean ± SD of 12 dogs
compound,measurement,setting,value
"COc1ccc(C(C)(C)C)cc1CN[C@H]1C2CCN(CC2)[C@H]1C(c1ccccc1)c1ccccc1 [Compound of Formula Ia, (2S,3S)-2-benzhydryl-N-(5-tert-butyl-2-methoxybenzyl)quinuclidin-3-amine]","Time to extubation, experimental vs control group",geriatric beagles; 0.5 mg/kg SC,no statistical difference
same,"Time to sternal recumbency, experimental vs control group",geriatric beagles; 0.5 mg/kg SC,no statistical difference
same,"Visual analog score for smoothness of recovery period, experimental vs control group",geriatric beagles; 0.5 mg/kg SC,no statistical difference
same,Time to Extubation Mean ± SD,geriatric beagles; [1],5.00 ± 4.47 min
same,Time to Sternal Recumbency Mean ± SD,geriatric beagles; [1],10.86 ± 10.67 min
same,Subjective appearance during the recovery period vs control dogs,geriatric beagles; 0.5 mg/kg SC during the preoperative period,tended to look less anxious
same,Recovery Score Mean ± SD,"geriatric beagles; 0.5 mg/kg SC, VAS 0=smooth, 10=rough, beagle dogs",3.46 ± 1.54 cm
same,Treated dogs that received visual analog scores of less than 5 cm,"geriatric beagles; 0.5 mg/kg SC, control dogs 4 out of 8",7 out of 7
same,Time to extubation compared with saline group,mature mongrel dogs; 1 mg/kg SC,similar
same,Time to sternal recumbency compared with saline group,mature mongrel dogs; 1 mg/kg SC,similar
same,Time to Extubation,mature mongrel dogs; [2],2 min (4×) and 1 min (2×) and 3 min and 5 min (3×) and 4 min (2×)
same,Time to Sternal Recumbency,mature mongrel dogs; [2],4 min and 3 min (4×) and 6 min (2×) and 1 min and 11 min and 9 min (2×) and 7 min
same,Time to Extubation,mature mongrel dogs; [3],3 ± 2 min
same,Time to Sternal Recumbency,mature mongrel dogs; [3],5 ± 3 min
same,Recovery Quality,"mature mongrel dogs; 1 mg/kg SC, VAS 0=smooth recovery, 10=rough recovery, individual dogs",7.1 cm and 1.4 cm and 2.1 cm and 0.7 cm and 0.9 cm and 3.9 cm and 0.2 cm and 1.1 cm and 1.8 cm and 1.9 cm and 4.7 cm and 2.4 cm
same,Recovery Quality,"mature mongrel dogs; 1 mg/kg SC, VAS 0=smooth, 10=rough, Mean ± SD of 12 dogs, p=0.02 vs saline",2.3 ± 2 cm
same,Recovery scores compared with saline,"mature mongrel dogs; 1 mg/kg SC, p=0.02",significantly lower recovery scores
same,Recovery VAS scores lower than saline controls,"mature mongrel dogs; 1 mg/kg SC, vs saline controls",43.9%
